Laboratory results from ChEMBL document CHEMBL4265965, “Dichloroacetophenones targeting at pyruvate dehydrogenase kinase 1 with improved selectivity and antiproliferative activity: Synthesis and structure-activity relationships” (Bioorg Med Chem Lett, 2018).
Active and inactive are the calls of the source. No cut-off for these calls is given here.

Assays:
NCI-H1650 [1] = assay: Antiproliferative activity against human NCI-H1650 cells assessed as inhibition of cell proliferation at 6 uM after 72 hrs by MTT assay relative to control; type: functional; conditions: for inhibition at 6 µM: NCI-H1650, 72 h
NCI-H1975 [2] = assay: Antiproliferative activity against human NCI-H1975 cells assessed as inhibition of cell proliferation after 72 hrs by MTT assay; type: functional, cell-based; conditions: NCI-H1975, 72 h
A549 [3] = assay: Antiproliferative activity against human A549 cells assessed as inhibition of cell proliferation at 6 uM after 72 hrs by MTT assay relative to control; type: functional; conditions: for inhibition at 6 µM: A549, 72 h
NCI-H1975 [4] = assay: Antiproliferative activity against human NCI-H1975 cells assessed as inhibition of cell proliferation at 12 uM after 72 hrs by MTT assay relative to control; type: functional; conditions: for inhibition at 12 µM: NCI-H1975, 72 h
A549 [5] = assay: Antiproliferative activity against human A549 cells assessed as inhibition of cell proliferation at 12 uM after 72 hrs by MTT assay relative to control; type: functional; conditions: for inhibition at 12 µM: A549, 72 h
[6] = molecular target: T1, [Pyruvate dehydrogenase (acetyl-transferring)] kinase isozyme 1, mitochondrial (Homo sapiens, UniProt Q15118); assay: Inhibition of recombinant human N-terminal His6/Sumo-tagged PDK1 (29 to 436 residues) expressed in Escherichia coli BL21 at 1 uM by kinase-glo luminescence assay relative to control
NCI-H1975 [7] = assay: Antiproliferative activity against human NCI-H1975 cells assessed as inhibition of cell proliferation at 6 uM after 72 hrs by MTT assay relative to control; type: functional; conditions: for inhibition at 6 µM: NCI-H1975, 72 h
NCI-H1975 [8] = assay: Antiproliferative activity against human NCI-H1975 cells assessed as inhibition of cell proliferation at 2 uM after 72 hrs by MTT assay relative to control; type: functional; conditions: for inhibition at 2 µM: NCI-H1975, 72 h
NCI-H1650 [9] = assay: Antiproliferative activity against human NCI-H1650 cells assessed as inhibition of cell proliferation at 12 uM after 72 hrs by MTT assay relative to control; type: functional; conditions: for inhibition at 12 µM: NCI-H1650, 72 h
A549 [10] = assay: Antiproliferative activity against human A549 cells assessed as inhibition of cell proliferation at 2 uM after 72 hrs by MTT assay relative to control; type: functional; conditions: for inhibition at 2 µM: A549, 72 h
NCI-H1650 [11] = assay: Antiproliferative activity against human NCI-H1650 cells assessed as inhibition of cell proliferation at 2 uM after 72 hrs by MTT assay relative to control; type: functional; conditions: for inhibition at 2 µM: NCI-H1650, 72 h
[12] = molecular target: T1, [Pyruvate dehydrogenase (acetyl-transferring)] kinase isozyme 1, mitochondrial; assay: Inhibition of PDK1 in human NCI-H1975 cells assessed as reduction in pyruvate dehydrogenase phosphorylation at 10 uM after 24 hrs by Western blot analysis; type: cell-based
Sus scrofa = species on record: Sus scrofa; assay: Inhibition of porcine PDK1 assessed as activation of pyruvate dehydrogenase complex at 1 uM measured after 3 mins

Row | Structure (SMILES) | inhibition at 6 µM (NCI-H1650 [1]) | inhibition at 6 µM (A549 [3]) | inhibition at 12 µM (NCI-H1975 [4]) | inhibition at 12 µM (A549 [5]) | inhibition [6] | inhibition at 6 µM (NCI-H1975 [7]) | inhibition at 2 µM (NCI-H1975 [8]) | inhibition at 12 µM (NCI-H1650 [9]) | inhibition at 2 µM (A549 [10]) | inhibition at 2 µM (NCI-H1650 [11]) | inhibition [12] | inhibition (Sus scrofa) | further results
1 | COc1ccc(C(=O)C(Cl)Cl)cc1Cl | 78.5% | 56.7% | 99.4% | 88.4% | 47.1% | 95.8% | 51.7% | 98.7% | 17% | 36.5% | Active |  | IC50 (NCI-H1975 [2]): 2 µM
2 | CC(C)c1ccc(C(=O)C(Cl)Cl)cc1 | 65.3% | 65.8% | 96.7% | 88.1% | 59.9% | 96.1% | 60.1% | 91.2% | 24.4% | 26.6% | Active |  | 
3 | O=C(c1cccc(CCl)c1)C(Cl)Cl | 100% | 99.5% | 99.5% | 100% | 15.1% | 99.3% | 99% | 100% | 73.3% | 97.6% |  |  | IC50 (NCI-H1975 [2]): 0.2 µM
4 | CCCOc1ccc(C(=O)C(Cl)Cl)cc1 | 66% | 58.9% | 97.7% | 79.7% | 19.7 to 67.9% | 93% | 44.3% | 95.3% | 8.4% | 27.4% | Active |  | IC50 (NCI-H1975 [2]): 2 µM
5 | O=C(Oc1ccccc1)C(Cl)Cl |  |  |  |  | inactive |  |  |  |  |  |  | inactive | inhibition (NCI-H1650 [1]): inactive; inhibition (A549 [3]): inactive; inhibition (NCI-H1975 [4]): inactive; inhibition (A549 [5]): inactive; inhibition (NCI-H1975 [7]): inactive; inhibition (NCI-H1975 [8]): inactive; inhibition (NCI-H1650 [9]): inactive; inhibition (A549 [10]): inactive; inhibition (NCI-H1650 [11]): inactive
6 | CC(C)Oc1ccc(C(=O)CCl)cc1[N+](=O)[O-] | 24.8% | 14.8% | 85.6% | 38.9% | Active | 27.7% |  | 51.4% |  |  |  | Active | inhibition (NCI-H1975 [8]): inactive; inhibition (A549 [10]): inactive; inhibition (NCI-H1650 [11]): inactive
7 | O=C(c1ccc(-c2ccccc2)cc1)C(Cl)Cl | 79.2% | 75.9% | 99.4% | 91.2% | 19.7 to 67.9% | 90.3% | 56.3% | 96.4% | 22.5% | 42.2% | Active |  | IC50 (NCI-H1975 [2]): 2 µM
8 | CC(C)Oc1ccc(C(=O)C(Cl)(Cl)Cl)cc1[N+](=O)[O-] |  |  | 35.6% | 15.9% | Active |  |  | 24.7% |  |  |  | Active | inhibition (NCI-H1650 [1]): inactive; inhibition (A549 [3]): inactive; inhibition (NCI-H1975 [7]): inactive; inhibition (NCI-H1975 [8]): inactive; inhibition (A549 [10]): inactive; inhibition (NCI-H1650 [11]): inactive
9 | CCCCCOc1ccc(C(=O)C(Cl)Cl)cc1 | 81.5% | 60.4% | 98.5% | 85% | 19.7 to 67.9% | 96.6% | 57.5% | 98.2% | 20.2% | 32.8% | Active |  | 
10 | O=C(c1ccc(OCCCBr)cc1)C(Cl)Cl | 65.4% | 80.1% | 99.9% | 98.4% | 19.7 to 67.9% | 99.6% | 69.8% | 92.5% | 21.7% | 27.9% | Active |  | 
11 | O=C(c1ccncc1)C(Cl)Cl | 34.4% | 6.6% | 91.7% | 21.3% | inactive | 41.6% | 2.29% | 80.3% | 2.1% | 15.6% |  | 8.9% | 
12 | CCCCOc1ccc(C(=O)C(Cl)Cl)cc1 | 70.7% | 46.6% | 97.4% | 67% | 19.7 to 67.9% | 92% | 46.5% | 97.6% | 20.9% | 30.7% | Active |  | 
13 | CCCCCCOc1ccc(C(=O)C(Cl)Cl)cc1[N+](=O)[O-] | 53.1% | 33.4% | 98.3% | 83.1% | Active | 51.7% | 5.7% | 99.7% | 1.2% | 3.6% |  | Active | 
14 | O=C(c1ccc(OCCCCCBr)c([N+](=O)[O-])c1)C(Cl)Cl | 39.7% | 29.4% | 99.7% | 69.7% | Active | 49.8% | 6.9% | 78.6% | 6.9% |  |  | Active | inhibition (NCI-H1650 [11]): inactive
15 | O=C(c1cccs1)C(Cl)Cl | 42.5% | 34.7% | 95.8% | 71.1% | inactive | 62.1% | 26.8% | 73.4% | 6.9% | 16.8% |  | 3.9% | 
16 | O=C(c1ccco1)C(Cl)Cl | 48.9% | 35.8% | 94.5% | 79.8% | inactive | 58.6% | 31.2% | 85.7% | 8.9% | 21.4% |  | 2.5% | 
17 | CC1CCOc2ccc(C(=O)C(Cl)Cl)cc21 (configuration not stated) | 67.3% | 77.7% | 99.6% | 93.4% | 19.7 to 67.9% | 98% | 69.4% | 94.8% | 24.1% | 27% | Active |  | 
18 | CCCCOc1ccc(C(=O)C(Cl)Cl)cc1[N+](=O)[O-] | 28.8% | 79.9% | 98.9% | 95.2% | Active | 96.3% | 55.7% | 63.1% | 28.3% |  |  | Active | inhibition (NCI-H1650 [11]): inactive
19 | COc1ccc(C(=O)C(Cl)Cl)cc1[N+](=O)[O-] | 75.7% | 46.7% | 97.4% | 81.8% | Active | 89.4% | 22.3% | 97.2% | 17.7% | 30% |  | Active | 
